Source: patent US20030125319A1, “Methods for assessing, improving, or maintaining urogenital health in postmenopausal women” (priority 2000, published 2003)

Tested on: postmenopausal women
Assay: Self-assessment questionnaire (subjective vaginal health questionnaire) in postmenopausal women taking the estrogen agonist/antagonist
Assay type: in vivo, human
Conditions: self-reported by postmenopausal women taking the compound
Description: The subject self-assessment of vaginal health is performed with a subjective vaginal health questionnaire. Typically, the questionnaire is performed in private and the results kept confidential. The questionnaire may include an envelope that is specially encoded to later identify the treatment that the subject is undergoing. An additional question may be added in subsequent questionnaires following administration of the baseline questionnaire, which question would ask: “Have you had any positive or negative vaginal changes since you have been taking the study medication?” This question may be coupled to a multiple-point ratings scale ranging from “mostly positive changes,” to “moderately positive changes,” to “mildly positive changes,” to “no changes,” to “mildly negative changes,” to “moderately negative changes,” to “mostly negative changes.”

O=C(O)C(O)C(O)C(=O)O.Oc1ccc2c(c1)CC[C@H](c1ccccc1)[C@@H]2c1ccc(OCCN2CCCC2)cc1 [(−)-cis-6-phenyl-5-[4-(2-pyrrolidin-1-yl-ethoxy)-phenyl]-5,6,7,8-tetrahydro-naphthalene-2-ol, D-tartrate salt]
frequency of sexual intercourse: increased frequency | intensity of orgasms: increased intensity | number of orgasms: increased number
